Assay results: ChEMBL document CHEMBL1201862, “PubChem BioAssay data set” (2004)
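1) Cells in 96-well plates. 2) Compound, 48 h, 5 concentrations. 3) Linear interpolation between surrounding doses. 4) Unreached endpoint = highest concentration. GI50 = concentration required for 50% inhibition of growth.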 The source made the active and inactive calls. Cut-off read from the data, not from the text of the source: active = GI50 up to about 1.1 µM and inactive = higher.

How the values were obtained:
Test in all cases: growth of human tumour cells (NCI), 48 h
HCT-15 = test system: HCT-15
UACC-62 = test system: UACC-62
U-251 = test system: U-251
TK-10 = test system: TK-10
SF-295 = test system: SF-295
NCI-H23 = test system: NCI-H23
SN12C = test system: SN12C
M14 = test system: M14
A498 = test system: A498
HT-29 = test system: HT-29
IGROV-1 = test system: IGROV-1
RPMI-8226 = test system: RPMI-8226
OVCAR-8 = test system: OVCAR-8
786-0 = test system: 786-0
CAKI-1 = test system: CAKI-1
OVCAR-3 = test system: OVCAR-3
SF-539 = test system: SF-539
SR = test system: SR

Row | Structure (SMILES) | GI50 (HCT-15) | GI50 (UACC-62) | GI50 (U-251) | GI50 (TK-10) | GI50 (SF-295) | GI50 (NCI-H23) | GI50 (SN12C) | GI50 (M14) | GI50 (A498) | GI50 (HT-29) | GI50 (IGROV-1) | GI50 (RPMI-8226) | GI50 (OVCAR-8) | GI50 (786-0) | GI50 (CAKI-1) | GI50 (OVCAR-3) | GI50 (SF-539) | GI50 (SR)
1 | CN1C(=O)C(C)(C)NS1(=O)=O | > 100 µM | > 100 µM (inactive) | > 100 µM (inactive) | > 100 µM (inactive) | > 100 µM (inactive) | > 100 µM (inactive) | > 100 µM (inactive) | > 100 µM (inactive) | > 100 µM (inactive) | > 100 µM (inactive) | > 100 µM (inactive) | > 100 µM (inactive) | > 100 µM (inactive) | > 100 µM (inactive) | > 100 µM (inactive) | > 100 µM (inactive) | > 100 µM (inactive) | –
2 | C#CC1(O)CCC2C3CCc4cc(Oc5nc(F)nc(-c6c7ccccc7c7sc8ccccc8n67)n5)ccc4C3CC[C@@]21C (stereo partly specified) | > 100 µM | > 100 µM (inactive) | 75.7 µM (inactive) | > 100 µM (inactive) | > 100 µM (inactive) | 33.3 µM (inactive) | – | 26.1 µM (inactive) | – | > 100 µM (inactive) | > 100 µM (inactive) | > 100 µM (inactive) | > 100 µM (inactive) | > 100 µM (inactive) | > 100 µM (inactive) | > 100 µM (inactive) | > 100 µM (inactive) | 32.1 µM (inactive)
3 | NC(=O)COc1c(Br)cc(Br)cc1Br | > 100 µM | > 100 µM (inactive) | > 100 µM (inactive) | – | > 100 µM (inactive) | > 100 µM (inactive) | > 100 µM (inactive) | > 100 µM (inactive) | – | > 100 µM (inactive) | – | > 100 µM (inactive) | > 100 µM (inactive) | > 100 µM (inactive) | > 100 µM (inactive) | > 100 µM (inactive) | > 100 µM (inactive) | > 100 µM (inactive)
4 | CN(C)C(=S)/N=c1\ssc(=S)n1Cc1ccccn1 | 2.01 µM | 2.41 µM (inactive) | 3.89 µM (inactive) | 7.55 µM (inactive) | 3.8 µM (inactive) | 3.62 µM (inactive) | 7.03 µM (inactive) | 2.55 µM (inactive) | 4.84 µM (inactive) | 2.78 µM (inactive) | 7.29 µM (inactive) | 2.31 µM (inactive) | 4.54 µM (inactive) | 4.24 µM (inactive) | 6.93 µM (inactive) | 2.52 µM (inactive) | 4.49 µM (inactive) | –
5 | O=C1CN(C(=O)c2ccccc2)Cc2[nH]c3ccccc3c21 | > 100 µM | > 100 µM (inactive) | > 100 µM (inactive) | > 100 µM (inactive) | > 100 µM (inactive) | > 100 µM (inactive) | > 100 µM (inactive) | > 100 µM (inactive) | – | > 100 µM (inactive) | > 100 µM (inactive) | > 100 µM (inactive) | > 100 µM (inactive) | > 100 µM (inactive) | – | > 100 µM (inactive) | > 100 µM (inactive) | > 100 µM (inactive)
6 | c1cncc(C2N3CCCCC3[C@@H]3c4[nH]c5ccccc5c4CCN23)c1 (stereo partly specified) | > 100 µM | 47.6 µM (inactive) | > 100 µM (inactive) | > 100 µM (inactive) | > 100 µM (inactive) | > 100 µM (inactive) | > 100 µM (inactive) | > 100 µM (inactive) | > 100 µM (inactive) | > 100 µM (inactive) | > 100 µM (inactive) | > 100 µM (inactive) | > 100 µM (inactive) | > 100 µM (inactive) | > 100 µM (inactive) | > 100 µM (inactive) | > 100 µM (inactive) | –
7 | COc1cc(C(=O)N[C@H]2CCc3cc(OC)c(OC)c(OC)c3-c3ccc(SC)c(=O)cc32)cc(OC)c1OC | 0.444 µM | 0.0316 µM (active) | 0.0116 µM (active) | 0.215 µM (active) | 0.00962 µM (active) | 0.00589 µM (active) | 0.0204 µM (active) | 0.00832 µM (active) | 0.0403 µM (active) | 0.00641 µM (active) | 0.0166 µM (active) | 0.0115 µM (active) | 0.00813 µM (active) | 0.0223 µM (active) | – | 0.00502 µM (active) | 0.00515 µM (active) | 0.0126 µM (active)
8 | CCCOc1ccc(/C=C\c2cc(OC)c(OC)c(OC)c2)cc1 | 43.6 µM | 41.4 µM (inactive) | 68.9 µM (inactive) | 31.8 µM (inactive) | 39.9 µM (inactive) | – | 65.3 µM (inactive) | 53.3 µM (inactive) | 26.6 µM (inactive) | 26.5 µM (inactive) | > 100 µM (inactive) | 14.5 µM (inactive) | > 100 µM (inactive) | > 100 µM (inactive) | 58.3 µM (inactive) | > 100 µM (inactive) | 74.3 µM (inactive) | –
